Experimental data reported in patent publication US5250563A, “Inhibitors of HIV protease” (Merck & Co., Inc., priority 1992, dated 1993).

biological target: T1, HIV protease (Human immunodeficiency virus type 1 group M subtype B, UniProt P04585); assay: peptide cleavage assay (HIV protease assay); type: biochemical; settings: not given

How did the IC50 turn out when C=C1C(C)C2C(Cc3ccccc3)NC(=O)C23C(OC(C)=O)C=CC(C)CC(C)CC=CC3C1O (centres unmarked) [Compound 1] was run?
Its IC50 is roughly 6.28 µM.

biological target: T1, HIV protease; assay: Assay for Inhibition of Recombinant HIV Protease (tritiated peptide substrate cleavage); type: biochemical; parameters: the HIV protease expressed in Escherichia coli; made in house; host or cells: Escherichia coli; settings: pH 5.5, 60 minutes at 37° C., HIV protease expressed in Escherichia coli, [3H]-peptide substrate
Procedure: Assay for Inhibition of Recombinant HIV Protease
Inhibition studies were performed on the reaction of the HIV protease expressed in Escherichia coli with a tritiated peptide substrate, [^3 H]-acetyl-Val-Ser-Gln-Asn-(beta-napthyl-Ala)-Pro-Ile-Val-Gin-Gly-Arg-Arg-NH2 (MW 1800). The two arginine residues at the carboxyl terminus give this peptide an overall positive charge at acidic pH and enable it to bind to the H^+ form of DOWEX AG-50W-X8 resin and similar resins.
Aliquots of 25 μl containing 6.0-8.0 nM HIV protease in assay buffer (100 mM sodium acetate, pH 5.5 and 0.1% BSA) are placed in assay tubes. The reaction is initiated by addition of 25 μl aliquots of 4.2 μM tritiated peptide substrate in 100 mM sodium acetate, pH 5.5. After incubation for 60 minutes at 37° C., the reaction is stopped with 100 μl of 5% H3 PO4, then analysed by application of column chromatography.

C=C1C(C)C2C(Cc3ccccc3)NC(=O)C23C(OC(C)=O)C=CC(C)CC(C)CC=CC3C1O (centres unmarked) [Compound 1] was tested. Which IC50 did it give?
The IC50 was 10 µM.

With C=C1C(C)C2C(Cc3ccccc3)NC(=O)C23C(OC(C)=O)C=CC(C)CC(CO)CC=CC3C1O (centres unmarked) [Compound 2] as the compound, how does the IC50 read?
The IC50 was 43 µM.

With C=C1C(C)C2C(Cc3ccc(O)cc3)NC(=O)C23C(OC(C)=O)C=CC(C)CC(CO)CC=CC3C1O (centres unmarked) [Compound 3] as the compound, how does the IC50 read?
Its IC50 is 40 µM.

C=C1C(C)C2C(Cc3cccc(O)c3)NC(=O)C23C(OC(C)=O)C=CC(C)CC(CO)CC=CC3C1O (centres unmarked) [Compound 4] was tested. Which IC50 did it give?
Its IC50 is 25 µM.

With C=C1C(C)C2C(Cc3ccc(O)c(O)c3)NC(=O)C23C(OC(C)=O)C=CC(C)CC(CO)CC=CC3C1O (centres unmarked) [Compound 5] as the compound, how does the IC50 read?
The IC50 was greater than 50 µM.

How did the IC50 turn out when C=C1C(C)C2C(Cc3ccccc3)NC(=O)C23C(OC(C)=O)C=CC(C)CC(O)(CO)CC=CC3C1O (centres unmarked) [Compound 6] was run?
The IC50 was greater than 50 µM.

With C=C1C(C)C2C(Cc3cccc(O)c3)NC(=O)C23C(OC(C)=O)C=CC(C)CC(O)(CO)CC=CC3C1O (centres unmarked) [Compound 7] as the compound, how does the IC50 read?
Its IC50 is greater than 50 µM.
